This is an account of results in patent publication US4839374A, “4-((Bicyclic heterocyclyl)-methyl and -hetero)-piperidines” (Janssen Pharmaceutica, N.V., priority 1987, dated 1989).

Each structure is given as a SMILES string.

The subject of this assay is compound 48/80-induced lethality. In words: Protection of rats from compound 48/80-induced lethality. The class given is in vivo, rats of an inbred Wistar strain. Particulars: Rattus norvegicus, 4 h, read-out: Compound 48/80 lethality test in rats ED50, s.c. or p.o. 1 h before compound 48/80 0.5 mg/kg i.v.; protection of 50% of animals, survival after 4 hours. Here is the method:
Protection of rats from compound 48/80-induced lethality
The protection from compound 48/80-induced lethal circulatory collapse appears to be a simple way of evaluating quantitatively the antihistaminic activity of test compounds. Male rats of an inbred Wistar strain, weighing 240-260 g were used in the experiment. After overnight starvation the rats were transferred to conditioned laboratories (temp.=21±1° C., relative humidity=65+5%). The rats were treated subcutaneously or orally with a test compound or with the solvent (NaCl solution, 0.9%). […] Survival after 4 hours is therefore considered to be a safe criterion of a protective effect of drug administration. The ED50 -values of the compounds of formula (I) are listed in the first column of tables 1 to 4. Said ED50 -values are the values in mg/kg body weight at which the tested compounds protect 50% of the tested animals against compound 48/80-induced lethality. The compounds of formula (I) and the pharmaceutically acceptable acid addition salts thereof are also potent serotonin-antagonists. The potency of the subject compounds as serotonin-antagonists is clearly evidenced by the results obtained in the following tests wherein the antagonistic activity of the subject compounds on the effect of serotonin is examined.
For the compound `Cc1nc(CCN2CCC(Cc3nc4ccccc4n3Cc3ccc(F)cc3)CC2)cs1` [Compound 459, 1-[(4-fluorophenyl)methyl]-2-[[1-[2-(2-methyl-4-thiazolyl)ethyl]-4-piperidinyl]methyl]-1H-benzimidazole], the ED50 was 0.02 mg/kg. Consider `O=c1[nH]c2ccccc2c(=O)n1CCCCN1CCC(Cc2nc3ccccc3n2Cc2ccco2)CC1` [Compound 490, 3-[4-[4-[[1-(2-furanylmethyl)-1H-benzimidazol-2-yl]methyl]-1-piperidinyl]butyl]-2,4(1H,3H)-quinazolinedione], for which the ED50 worked out at 0.31 mg/kg. Take `N#CCN1CCC(Cc2nc3cccnc3n2Cc2ccc(F)cc2)CC1` [Compound 290]: the ED50 amounted to 0.08 mg/kg. On to `c1coc(Cn2c(CC3CCN(CCNc4nc5cnccc5[nH]4)CC3)nc3cccnc32)c1` [Compound 417, N-[2-[4-[[3-(2-furanylmethyl)-3H-imidazo[4,5-b]pyridin-2-yl]methyl]-1-piperidinyl]ethyl]-1H-imidazo[4,5-c]pyridin-2-amine], for which the ED50 came out at 0.04 mg/kg. Regarding `c1ccc(Cn2c(CC3CCN(CCNc4nccs4)CC3)nc3ccccc32)cc1` [Compound 363], the ED50 was found to be 0.04 mg/kg. Take `O=C(c1ccco1)N(CCN1CCC(Cc2nc3ccccc3n2Cc2ccco2)CC1)c1ncccn1` [Compound 509, N-[2-[4-[[1-(2-furanylmethyl)-1H-benzimidazol-2-yl]methyl]-1-piperidinyl]-ethyl]-N-(2-pyrimidinyl)-2-furancarboxamide]: the ED50 came out at 0.02 mg/kg. The result for `Cc1nc2n(c(=O)c1CCN1CCC(Cc3nc4cccnc4n3Cc3ccccn3)CC1)CCCC2` [Compound 258] reads 0.08 mg/kg; that for `COc1ccc(Cn2c(CC3CCN(CC#N)CC3)nc3ccccc32)cc1` [Compound 293], 0.08 mg/kg; that for `c1ccc(Cn2c(CC3CCNCC3)nc3ccccc32)cc1` [Compound 40, 1-(phenylmethyl)-2-(4-piperidinylmethyl)-1H-benzimidazole], 0.08 mg/kg. For `c1ccc(Cn2c(CC3CCN(CCNc4ncccn4)CC3)nc3cccnc32)nc1` [Compound 340], the ED50 was determined as 0.08 mg/kg. `CCNC(=O)NCCN1CCC(Cc2nc3cccnc3n2Cc2ccc(F)cc2)CC1` [Compound 429, N-ethyl-N'-[2-[4-[[3-[(4-fluorophenyl)methyl]-3H-imidazo[4,5-b]pyridin-2-yl]-methyl]-1-piperidinyl]ethyl]urea]: the ED50 is 0.02 mg/kg. The result for `O=c1[nH]c2ccccc2c(=O)n1CCN1CCC(Cc2nc3cccnc3n2Cc2ccco2)CC1` [Compound 171] reads 0.08 mg/kg.

Take `O=C(NCCN1CCC(Cc2nc3ccccc3n2Cc2ccc(F)cc2)CC1)c1cc(O)c2ccccc2n1` [Compound 444, N-[2-[4-[[1-[(4-fluorophenyl)methyl]-1H-benzimidazol-2-yl]methyl]-1-piperidinyl]ethyl]-4-hydroxy-2-quinolinecarboxamide]: the ED50 came to 0.16 mg/kg. Then `O=c1[nH]c2ccccc2c(=O)n1CCCCN1CCC(Cc2nc3cccnc3n2Cc2ccco2)CC1` [Compound 491, 3-[4-[4-[[3-(2-furanylmethyl)-3H-imidazo[4,5-b]pyridin-2-yl]methyl]-1-piperidinyl]butyl]-2,4-(1H,3H)-quinazolinedione], with 0.16 mg/kg; and `Nc1ccccc1C(=O)NCCN1CCC(Cc2nc3ccccc3n2Cc2ccco2)CC1` [Compound 466, 2-amino-N-[2-[4-[[1-(2-furanylmethyl)-1H-benzimidazol-2-yl]methyl]-1-piperidinyl]ethyl]benzamide], with 0.02 mg/kg. Turning to `Fc1ccc(Cn2c(SC3CCN(CCOc4ncccn4)CC3)nc3ccccc32)cc1` [Compound 393, 1-[(4-fluorophenyl)methyl]-2-[[1-[2-(2-pyrimidinyloxy)ethyl]-4-piperidinyl]thio]-1H-benzimidazole], the ED50 stood at 0.08 mg/kg. For `c1csc(Cn2c(CC3CCN(CCNc4nccs4)CC3)nc3cccnc32)c1` [Compound 361], the ED50 is 0.02 mg/kg. Consider `C[C@@H]1CN(CCNc2ncccn2)CC[C@@H]1Oc1nc2ccccc2n1Cc1ccc(F)cc1` (relative stereo) [Compound 349, cis-N-[2-[4-[[1-[(4-fluorophenyl)methyl]-1H-benzimidazol-2-yl]oxy]-3-methyl-1-piperidinyl]ethyl]-2-pyrimidinamine], for which the ED50 came to 0.08 mg/kg.

As to `CSc1nc2cncnc2n1CCN1CCC(Cc2nc3ccccc3n2Cc2ccc(F)cc2)CC1` [Compound 507, 9-[2-[4-[[1-[(4-fluorophenyl)methyl]-1H-benzimidazol-2-yl]methyl]-1-piperidinyl]ethyl]-8-(methylthio)-9H-purine], the ED50 stood at 0.16 mg/kg. Then `COc1ccc(CCN2CCC(Cc3nc4ccccc4n3Cc3cscn3)CC2)cc1` [Compound 245, 2-[[1-[2-(4-methoxyphenyl)ethyl]-4-piperidinyl]methyl]-1-(4-thiazolylmethyl)-1H-benzimidazole], with 0.02 mg/kg; and `O=c1[nH]c2ccccc2n1CCCN1CCC(Oc2nc3ccccc3n2Cc2ccc(F)cc2)CC1` [Compound 140, 1-[3-[4-[[1-[(4-fluorophenyl)methyl]-1H-benzimidazol-2-yl]oxy]-1-piperidinyl]propyl]-1,3-dihydro-2H-benzimidazol-2-one], with 0.04 mg/kg; and `CCOC(=O)N1CCC(Cc2nc3ccccc3n2Cc2cccs2)CC1` [Compound 59, ethyl 4-[[1-(2-thienylmethyl)-1H-benzimidazol-2-yl]methyl]-1-piperidinecarboxylate], with 0.02 mg/kg. Regarding `O=S(=O)(CCN1CCC(Cc2nc3ccccc3n2Cc2ccc(F)cc2)CC1)c1ccccc1` [Compound 130], the ED50 worked out at 0.16 mg/kg.

Take `C=CCN1CCC(Cc2nc3ccccc3n2Cc2ccc(F)cc2)CC1` [Compound 144, 1-[(4-fluorophenyl)methyl]-2-[[1-(2-propenyl)-4-piperidinyl]methyl]-1H-benzimidazole]: the ED50 amounted to 0.04 mg/kg. Turning to `O=c1[nH]c2ccccc2n1CCCN1CCC(Cc2nc3cccnc3n2Cc2ccco2)CC1` [Compound 152], the ED50 turned out to be 0.04 mg/kg. `Fc1ccc(Cn2c(CC3CCN(CCNc4cnccn4)CC3)nc3ccccc32)cc1` [Compound 368]: the ED50 is 0.01 mg/kg. Regarding `Nc1ccccc1C(=O)NCCN1CCC(Cc2nc3cccnc3n2Cc2ccco2)CC1` [Compound 473, 2-amino-N-[2-[4-[[3-(2-furanylmethyl)-3H-imidazo[4,5-b]pyridin-2-yl]methyl]-1-piperidinyl]ethyl]benzamide], the ED50 was found to be 0.02 mg/kg.

In the case of `Cc1nc2n(c(=O)c1CCN1CCC(Cc3nc4cccnc4n3Cc3ccc(F)cc3)CC1)CCCS2` [Compound 205, 7-[2-[4-[[3-[(4-fluorophenyl)methyl]-3H-imidazo[4,5-b]pyridin-2-yl]methyl]-1-piperidinyl]ethyl]-3,4-dihydro-8-methyl-2H,6H-pyrimido[2,1-b][1,3]thiazin-6-one], the ED50 is 0.08 mg/kg. `COc1ccc(CCN2CCC(Cc3nc4cnccc4n3Cc3ccc(F)cc3)CC2)cc1` [Compound 202, 1-[(4-fluorophenyl)methyl]-2-[[1-[2-(4-methoxyphenyl)ethyl]-4-piperidinyl]-methyl]-1H-imidazo-[4,5-c]pyridine]: the ED50 is 0.08 mg/kg. Regarding `Cn1c(=O)n(CCN2CCC(Cc3nc4cccnc4n3Cc3ccco3)CC2)c(=O)c2ccccc21` [Compound 170], the ED50 was determined as 0.08 mg/kg. As to `Cc1nc2sccn2c(=O)c1CCN1CCC(Cc2nc3cccnc3n2Cc2ccco2)CC1` [Compound 173], the ED50 was determined as 0.01 mg/kg. Then `Fc1ccc(Cn2c(CC3CCN(CCSc4nc5cnccc5s4)CC3)nc3ccccc32)cc1` [Compound 388, 2-[[2-[4-[[1-[(4-fluorophenyl)methyl]-1H-benzimidazol-2-yl]methyl]-1-piperidinyl]ethyl]thio]thiazolo[4,5-c]pyridine], with 0.16 mg/kg; and `CNCCN1CCC(Cc2nc3ccccc3n2Cc2ccc(F)cc2)CC1` [Compound 513, 4[[1-[(4-fluorophenyl)methyl]-1H-benzimidazol-2-yl]methyl]-N-methyl-1-piperidineethanamine], with 0.08 mg/kg.

For the compound `Fc1ccc(Cn2c(CC3CCNCC3)nc3ccncc32)cc1` [Compound 50, 3-[(4-fluorophenyl)methyl]-2-(4-piperidinylmethyl)-3H-imidazo[4,5-c]-pyridine], the ED50 came to 0.04 mg/kg. For the compound `COc1ccc(CCN2CCC(Cc3nc4ccccc4n3Cc3cccs3)CC2)cc1` [Compound 232], the ED50 was determined as 0.08 mg/kg.

For the compound `Fc1ccc(Cn2c(CC3CCN(C4CCCCC4)CC3)nc3cccnc32)cc1` [Compound 98], the ED50 stood at 0.04 mg/kg.

On to `CC1(C)Nc2ccccc2C(=O)N1CCN1CCC(Cc2nc3cccnc3n2Cc2ccccn2)CC1` [Compound 479, 2,3-dihydro-2,2-dimethyl-3-[2-[4-[[3-(2-pyridinylmethyl)-3H-imidazo[4,5-b]-pyridin-2-yl]methyl]-1-piperidinyl]ethyl]-4(1H)-quinazolinone], for which the ED50 is 0.04 mg/kg. Then `COc1ccc(Cn2c(CC3CCN(CCCn4c(=O)[nH]c5ccccc54)CC3)nc3ccccc32)cc1` [Compound 154], with 0.08 mg/kg; and `Cn1c(=O)c2c(ncn2CCN2CCC(Cc3nc4cccnc4n3Cc3ccco3)CC2)n(C)c1=O` [Compound 176], with 0.04 mg/kg; and `O=[N+]([O-])c1ccccc1NCCN1CCC(Cc2nc3ccccc3n2Cc2ccc(F)cc2)CC1` [Compound 366], with 0.31 mg/kg.
